# Experimental data: US8026243B2, “[4,5′]Bipyrimidinyl-6,4′-diamine derivatives as protein kinase inhibitors” (Novartis AG, priority 2006, dated 2011)
# Target: T1, Ba/F3-TEL-FGFR3 cells (Homo sapiens, UniProt P22607)
# T1 construct: fused on or other part: The N-terminal oligomerising part of TEL (ETV6) is fused before the intracellular kinase part of FGFR3; P41212 (Transcription factor ETV6)
# Test: FGFR3 cellular assay: proliferation of transformed Ba/F3-TEL-FGFR3 cells (AlamarBlue)
# Assay type: cell-based
# Details: 48 hours incubation, class symbols
# Protocol: Compounds of the invention are tested for their ability to inhibit transformed Ba/F3-TEL-FGFR3 cells proliferation, which is dependent on FGFR3 cellular kinase activity. Ba/F3-TEL-FGFR3 are cultured up to 800,000 cells/mL in suspension, with RPMI 1640 supplemented with 10% fetal bovine serum as the culture medium. Cells are dispensed into 384-well format plate at 5000 cell/well in […], culture medium. Compounds of the invention are dissolved and diluted in dimethylsulfoxide (DMSO). Twelve points 1:3 serial dilutions are made into DMSO to create concentrations gradient ranging typically from 10 mM to 0.05 μM. Cells are added with 50 nL of diluted compounds and incubated for 48 hours in cell culture incubator. AlamarBlue® (TREK Diagnostic Systems), which can be used to monitor the reducing environment created by proliferating cells, are added to cells at final concentration of 10%. After additional four hours of incubation in a 37° C. cell culture incubator, fluorescence signals from reduced AlamarBlue® (Excitation at 530 nm, Emission at 580 nm) are quantified on Analyst GT (Molecular Devices Corp.). IC50 values are calculated by linear regression analysis of the percentage inhibition of each compound at 12 concentrations.
# T1 sequence (P22607 whole entry, change not shown, the tested form may be a part): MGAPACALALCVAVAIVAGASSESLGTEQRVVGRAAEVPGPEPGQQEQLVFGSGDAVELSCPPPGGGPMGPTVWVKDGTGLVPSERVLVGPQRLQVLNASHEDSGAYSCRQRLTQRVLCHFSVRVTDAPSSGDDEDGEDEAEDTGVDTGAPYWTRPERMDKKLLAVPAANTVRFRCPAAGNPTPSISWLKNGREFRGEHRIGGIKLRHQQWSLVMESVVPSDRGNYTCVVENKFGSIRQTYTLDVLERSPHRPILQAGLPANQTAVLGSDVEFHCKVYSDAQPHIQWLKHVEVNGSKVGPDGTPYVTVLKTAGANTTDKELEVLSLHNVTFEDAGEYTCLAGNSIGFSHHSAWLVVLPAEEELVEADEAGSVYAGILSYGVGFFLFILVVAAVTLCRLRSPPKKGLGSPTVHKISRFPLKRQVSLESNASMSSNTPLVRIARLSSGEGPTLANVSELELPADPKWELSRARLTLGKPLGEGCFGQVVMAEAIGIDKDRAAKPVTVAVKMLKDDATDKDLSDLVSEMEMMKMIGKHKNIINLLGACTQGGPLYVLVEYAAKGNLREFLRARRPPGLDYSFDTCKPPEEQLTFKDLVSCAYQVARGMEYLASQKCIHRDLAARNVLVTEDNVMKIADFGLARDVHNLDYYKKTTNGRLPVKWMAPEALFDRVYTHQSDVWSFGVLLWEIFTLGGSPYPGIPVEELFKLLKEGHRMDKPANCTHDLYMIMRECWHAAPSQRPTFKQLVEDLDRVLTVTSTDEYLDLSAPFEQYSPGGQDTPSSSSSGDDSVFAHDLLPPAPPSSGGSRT
row,GI50 [nM],SMILES
1,< 100,"COc1cc(OC)c(Cl)c(Nc2nccnc2-c2cc(Nc3cc(CN4CCOCC4)ccn3)ncn2)c1F [Compound 97, {6-[3-(2-chloro-3,5-dimethoxy-6-fluoro phenylamino)-pyrazin-2-yl]-pyrimidin-4-yl}-(4-morpholin-4-ylmethyl-pyridin-2-yl)-amine]"
2,< 100,"COc1cc(OC)c(Cl)c(Nc2ncncc2-c2cc(Nc3ccc(CCN4CCOCC4)cn3)ncn2)c1Cl [Compound 18, N4′-(2,6-Dichloro-3,5-dimethoxy-phenyl)-N6-[5-(2-morpholin-4-yl-ethyl)-pyridin-2-yl]-[4,5′]bipyrimidinyl-6,4′-diamine]"
3,< 100,"CCN1CCN(c2ccc(Nc3cc(-c4cncnc4Nc4c(C)c(OC)cc(OC)c4Cl)ncn3)nc2)CC1 [Compound 48, N4′-(2-Chloro-3,5-di-methoxy-6-methyl-phenyl)-N6-[5-(4-ethyl-piperazin-1-yl)-pyridin-2-yl]-[4,5′]bipyrimidinyl-6,4′-diamine]"
4,< 100,"COc1cc(OC)c(Cl)c(Nc2nc(C)ncc2-c2cc(Nc3ccc(CN4CCOCC4)cn3)ncn2)c1F [Compound 91, N4′-(2-Chloro-6-fluoro-3,5-dimethoxy-phenyl)-2′-methyl-N6-(5-morpholin-4-ylmethyl-pyridin-2-yl)-[4,5′]bipyrimidinyl-6,4′-diamine]"
5,< 100,"COc1cc(OC)c(Cl)c(Nc2ncncc2-c2cc(Nc3ccc(CN4CCN(C(N)=O)CC4)cn3)ncn2)c1Cl [Compound 15, 4-{6-[4′-(2,6-Dichloro-3,5-dimethoxy-phenylamino)-[4,5′]bipyrimidinyl-6-ylamino]-pyridin-3-ylmethyl}-piperazine-1-carboxylic acid amide]"
6,< 100,"COc1cc(OC)c(Cl)c(Nc2ncncc2-c2cc(Nc3ccc(CN4CCOCC4)cn3)ncn2)c1C [Compound 52, N4′-(2-Chloro-3,5-dimethoxy-6-methyl-phenyl)-N6-(5-morpholin-4-ylmethyl-pyridin-2-yl)-[4,5′]bipyrimidinyl-6,4′-diamine]"
7,100 to 250,"COc1cc(OC)c(Cl)c(Nc2ncncc2-c2cc(N)ncn2)c1Cl [Compound 1, N4′-(2,6-Dichloro-3,5-dimethoxy-phenyl)-[4,5′]bipyrimidinyl-6,4′-diamine]"
8,< 100,"COc1cc(OC)c(Cl)c(Nc2ncncc2-c2cc(Nc3cc(CN4CCOCC4)ccn3)ncn2)c1Cl [Compound 5, N4′-(2,6-Dichloro-3,5-dimethoxy-phenyl)-N6-(4-morpholin-4-ylmethyl-pyridin-2-yl)-[4,5′]bipyrimidinyl-6,4′-diamine]"
9,< 100,"COc1cc(OC)c(F)c(Nc2ncncc2-c2cc(Nc3ccc(CN4CCOCC4)cn3)ncn2)c1F [Compound 63, N4′-(2,6-Difluoro-3,5-dimethoxy-phenyl)-N6-(5-morpholin-4-ylmethyl-pyridin-2-yl)-[4,5′]bipyrimidinyl-6,4′-diamine]"
10,250 to 500,"COc1cc(OC)c(Cl)c(Nc2ncncc2-c2cc(NCCN3CCN(C)CC3)ncn2)c1Cl [Compound 14, N4′-(2,6-Dichloro-3,5-dimethoxy-phenyl)-N6-[2-(4-methyl-piperazin-1-yl)-ethyl]-[4,5′]bipyrimidinyl-6,4′-diamine]"
11,< 100,"CCN1CCN(Cc2ccc(Nc3cc(-c4cncnc4Nc4c(F)c(OC)cc(OC)c4F)ncn3)nc2)CC1 [Compound 64, N4′-(2,6-Difluoro-3,5-dimethoxy-phenyl)-N6-[5-(4-ethyl-piperazin-1-ylmethyl)-pyridin-2-yl]-[4,5′]bipyrimidinyl-6,4′-diamine]"
12,< 100,"CCN1CCN(c2ccc(Nc3cc(-c4cncnc4Nc4c(F)c(OC)cc(OC)c4Cl)ncn3)cc2)CC1 [Compound 59, N4′-(2-Chloro-6-fluoro-3,5-di-methoxy-phenyl)-N6-[4-(4-ethyl-piperazin-1-yl)-phenyl]-[4,5′]bipyrimidinyl-6,4′-diamine]"
13,< 100,"CCN1CCN(c2ccc(Nc3cc(-c4cncnc4Nc4c(F)c(OC)cc(OC)c4F)ncn3)nc2)CC1 [Compound 62, N4′-(2,6-Difluoro-3,5-dimethoxy-phenyl)-N6-[5-(4-ethyl-piperazin-1-yl)-pyridin-2-yl]-[4,5′]bipyrimidinyl-6,4′-diamine]"
14,250 to 500,"COc1cc(OC)c(Cl)c(Nc2ncncc2-c2cc(Nc3cncc(CN4CCOCC4)c3)ncn2)c1Cl [Compound 21, N4′-(2,6-Dichloro-3,5-dimethoxy-phenyl)-N6-(5-morpholin-4-ylmethyl-pyridin-3-yl)-[4,5′]bipyrimidinyl-6,4′-diamine]"
15,< 100,"COc1cc(OC)c(F)c(Nc2ncncc2-c2cc(Nc3cccc(C(C)O)c3)ncn2)c1F (centres unmarked) [Compound 78, 1-{3-[4′-(2,6-Difluoro-3,5-dimethoxy-phenylamino)-[4,5′]bipyrimidinyl-6-ylamino]-phenyl}-ethanol]"
16,< 100,"COc1cc(OC)c(Cl)c(Nc2ncncc2-c2cc(Nc3cc(CCN4CCOCC4)ccn3)ncn2)c1F [Compound 56, N4′-(2-Chloro-6-fluoro-3,5-dimethoxy-phenyl)-N6-[4-(2-morpholin-4-yl-ethyl)-pyridin-2-yl]-[4,5′]bipyrimidinyl-6,4′-diamine]"
17,< 100,"COC(=O)c1cc(OC)c(Cl)c(Nc2ncncc2-c2cc(Nc3ccc(CN4CCOCC4)cn3)ncn2)c1Cl [Compound 27, 2,4-Dichloro-5-methoxy-3-[6-(5-morpholin-4-ylmethyl-pyridin-2-ylamino)-[4,5′]bipyrimidinyl-4′-ylamino]-benzoic acid methyl ester]"
18,< 100,COc1cc(Nc2ncncc2-c2cc(Nc3ccc(CN4CCN(C(=O)CO)CC4)cn3)ncn2)c(F)c(OC)c1 [Compound 90]
19,< 100,"COc1cc(Nc2ncncc2-c2cc(Nc3ccc(CN4CCOCC4)cn3)ncn2)c(F)c(OC)c1 [Compound 68, N4′-(2-Fluoro-3,5-dimethoxy-phenyl)-N6-(5-morpholin-4-ylmethyl-pyridin-2-yl)-[4,5′]bipyrimidinyl-6,4′-diamine]"
20,< 100,"CCN1CCN(c2ccc(Nc3cc(-c4cncnc4Nc4c(Cl)c(OC)cc(OC)c4Cl)ncn3)cc2)CC1 [Compound 10, N4′-(2,6-Dichloro-3,5-dimethoxy-phenyl)-N6-[4-(4-ethyl-piperazin-1-yl)-phenyl]-[4,5′]bipyrimidinyl-6,4′-diamine]"
21,< 100,"CCN1CCN(Cc2ccc(Nc3cc(-c4cncnc4Nc4c(Cl)c(OC)cc(C(=O)NC5CC5)c4Cl)ncn3)nc2)CC1 [Compound 58, 2,4-Dichloro-N-cyclopropyl-3-{6-[5-(4-ethyl-piperazin-1-ylmethyl)-pyridin-2-ylamino]-[4,5′]bipyrimidinyl-4′-ylamino}-5-methoxy-benzamide]"
22,< 100,"COc1cc(OC)c(Cl)c(Nc2ncncc2-c2cc(Nc3ccc(CN4CCCC4)cn3)ncn2)c1Cl [Compound 2, N4′-(2,6-Dichloro-3,5-dimethoxy-phenyl)-N6-(5-pyrrolidin-1-ylmethyl-pyridin-2-yl)-[4,5′]bipyrimidinyl-6,4′-diamine]"
23,< 100,"CCN1CCN(c2ccc(Nc3cc(-c4cncnc4Nc4cc(OC)cc(OC)c4F)ncn3)nc2)CC1 [Compound 72, N6-[5-(4-Ethyl-piperazin-1-yl)-pyridin-2-yl]-N4′-(2-fluoro-3,5-dimethoxy-phenyl)-[4,5′]bipyrimidinyl-6,4′-diamine]"
24,< 100,"CCNC(=O)c1cc(OC)c(Cl)c(Nc2ncncc2-c2cc(Nc3ccc(CN(C)C)cn3)ncn2)c1Cl [Compound 31, 2,4-Dichloro-3-[6-(5-dimethylaminomethyl-pyridin-2-ylamino)-[4,5′]bipyrimidinyl-4′-ylamino]-N-ethyl-5-methoxy-benzamide]"
25,< 100,"CCN(CC)Cc1ccc(Nc2cc(-c3cncnc3Nc3c(Cl)c(OC)cc(OC)c3Cl)ncn2)nc1 [Compound 28, N4′-(2,6-Dichloro-3,5-dimethoxy-phenyl)-N6-(5-diethylamino-methyl-pyridin-2-yl)-[4,5′]bipyrimidinyl-6,4′-diamine]"
26,< 100,"COc1cc(OC)c(F)c(Nc2ncncc2-c2cc(Nc3ccc(CN4CCN(CCO)CC4)cn3)ncn2)c1F [Compound 74, 2-(4-{6-[4′-(2,6-Difluoro-3,5-di-methoxy-phenylamino)-[4,5′]bipyrimidinyl-6-ylamino]-pyridin-3-ylmethyl}-piperazin-1-yl)-ethanol]"
27,< 100,"CCNC(=O)c1cc(OC)c(Cl)c(Nc2ncncc2-c2cc(Nc3ccc(CN4CCCC4)cn3)ncn2)c1Cl [Compound 35, 2,4-Dichloro-N-ethyl-5-methoxy-3-[6-(5-pyrrolidin-1-ylmethyl-pyridin-2-ylamino)-[4,5′]bipyrimidinyl-4′-ylamino]-benzamide]"
28,< 100,"CCN1CCN(Cc2ccc(Nc3cc(-c4cncnc4Nc4cc(OC)cc(OC)c4F)ncn3)nc2)CC1 [Compound 69, N6-[5-(4-Ethyl-piperazin-1-ylmethyl)-pyridin-2-yl]-N4′-(2-fluoro-3,5-dimethoxy-phenyl)-[4,5′]bipyrimidinyl-6,4′-diamine]"
29,< 100,"COc1cc(OC)c(Cl)c(Nc2nccnc2-c2cc(Nc3ccc(CN4CCOCC4)cn3)ncn2)c1F [Compound 95, {6-[3-(2-chloro-3,5-dimethoxy-6-fluoro phenylamino)-pyrazin-2-yl]-pyrimidin-4-yl}-(5-morpholin-4-ylmethyl-pyridin-2-yl)-amine]"
